According to patent US9879059B2, “Tailoring multivalent interactions of biopolymers with a polyproline scaffold” (Agency for Science, Technology and Research, priority 2013, dated 2018):

Tests used:
[1] = target: nerve growth factor (NGF) (Homo sapiens, UniProt P01138); assay: ELISA of NGF binding to immobilized biotinylated glycopeptides
Experimental: The new plate was rinsed three times with PBS containing 0.05% Tween 20 and one time with PBS before the experiment. 100 μL of biotinylated glycopeptide solutions (0.5 μM) were added to required wells in the Pierce Streptavidin Coated High Binding Capacity plates (#15501), and incubated overnight at room temperature. After immobilization of glycopeptides, the plates were rinsed three times with PBS containing 0.05% Tween 20 and one time with PBS. The surface was then blocked with 125 μL of 3% BSA in PBS for 1 hr, followed by rinsing three times with PBS containing 0.05% Tween 20 and one time with PBS. 100 μL of varying concentrations (0 nM, 10 nM, 20 nM, 30 nM, 40 nM, 50 nM and 60 nM) of NGF in PBS containing 1% BSA was added to the wells and incubated for 2 hrs at 37° C. […]
The wells were then incubated with anti-NGF labeled with HRP in PBS containing 1% BSA. Absorbance signal was then developed with 100 μL of TMB Substrate from Thermo Scientific Pierce (#0034021) for 20 to 30 min before quenching with 100 μL of 2M H2SO4. Absorbance at 450 nm was then measured.
To evaluate the ability of the glycopeptides to interact with protein receptors, the binding affinity of each agent with nerve growth factor (NGF), which is known to bind CS-E sulfation motif selectively,^[9] was examined by ELISA. […] The amount of glycopeptide-bound NGF was measured by HRP-conjugated polyclonal NGF antibody.

NGF = NGF (Homo sapiens, UniProt P01138); conditions: for ka2 / kd1 / kd2 / ka1: two-state kinetic model, 25° C., NGF 11-185 nM; for ka1: standard errors in parentheses
Experimental: Affinity measurements were performed using a Biacore T100 system (GE Heathcare). The CM5 sensor chip was used for all measurements. At first, the instrument was primed with HBS-EP+ (GE Heathcare) buffer. Then, 700RU of streptavidin was immobilized on all flow cells. A 1:1 mixture of 0.4 M EDC and 0.1 M NHS was used to activate the flow cells, and 0.008 mg/mL streptavidin solution reconstituted in Acetate 5.0 buffer (GE Healthcare) was injected. Blocking of the remaining activated groups was done with a 1 M solution of ethanolamine (pH 8.5). Flow cell 1 (or 3) was used as a reference to subtract nonspecific binding, drift, and the bulk refractive index, while flow cell 2 (or 4) was further immobilized with glycol-peptide samples of varying structures. Biotinylated glycopeptides (20 nM) were dissolved in HBS-EP+ buffer and were injected to flow cell 2 (or 4) at 30 μL/min until the baseline response increased by 104 or 127 RU. The instrument was then primed using running buffer (HBS-EP+). NGF was dissolved in HBS-EP+ buffer to produce a 185 nM stock solution, which was serially diluted to produce a concentration series down to 11 nM. […] Flow cells were regenerated by 2.5 M MgCl2 at 30 μL/min for 30 seconds after injection of each protein solutions.
Surface plasmon resonance (SPR) technology was further employed to facilitate quantitative, real-time kinetic analysis of glycopeptide-NGF interaction. Streptavidin was coated on a carboxydextran CM5 sensor chip, using EDC/NHS coupling chemistry, at a relatively low density (≈700 RU) to prevent nonspecific interactions with NGF. Biotinylated glycopeptides were then immobilized on streptavidin-coated surface at normalized levels by molecular weights,^[12] […] Kinetics were monitored at 25° C. by injecting various concentrations of NGF (11-185 nM) over the surface for 240 s at 50 μL·min^−1 and recording the dissociation for 800 s before the surface was regenerated with 2.5 M solution of MgCl2. […] Further kinetic analysis was conducted using a two-state binding model for comprehensive understanding of this binding event.

PC12 cells = conditions: for effect on NGF-mediated neurite outgrowth: NGF 4 ng/ml, glycopeptide 10 μM, 72 hr, compared to NGF-only control
Experimental: Rat pheochromocytoma (PC12) cells were maintained in T75 tissue culture flask in complete RPMI 1640 growth medium containing 10% heat-inactivated horse serum (HI-HS), 5% fetal bovine serum (FBS) and 1% penicillin/streptomycin. Stock cultures from liquid nitrogen were grown at 37° C. with 5% CO2 in a humidified chamber for 72 hr before experiments.
13 mm glass coverslips were submerged in 65% nitric acid for at least three days. The coverslips were washed with distilled water, 70% ethanol and 100% ethanol 3× each for 30 minutes with gentle rocking. The coverslips were dried in the cell culture hood overnight with UV sterilization. For coating, 60 μl of laminin solution (25 μg/ml in sterile PBS) was added to each coverslip, followed by 2 hr incubation at 37° C. The coverslips were rinsed 3× with PBS and dried in the hood before use.
PC12 cells were seeded on laminin-coated coverslips at a density of 100 cells/mm^2 in RPMI 1640 differentiation medium containing 1% HI-HS. Cells were allowed to attach to the surface for 1 hr at 37° C. The coverslips were transferred to 24-well plates and the cells were incubated with fresh differentiation medium for 1 hr. Glycopeptides were incubated with NGF in differentiation medium for 1 hr at room temperature before adding to the cells together. At the end of culture period, the cells were fixed with 4% formaldehyde solution for 15 minutes at room temperature and rinsed 2× with PBS. All experiments were repeated three times and done in duplicate each time. For each treatment, 400-500 randomly selected single cells were counted. The percentage of neurite-bearing cells was determined by counting the number of cells with neurite length at least one cell body long.

TrkA = conditions: 10 μM glycopeptide 1 hr, NGF 4 ng/ml 5 minutes, ratio phospho-TrkA to total TrkA
Experimental: PC12 cells were seeded on laminin-coated coverslips at a density of 300 cells/mm^2 and one coverslip was used for each treatment (˜40,000 cells in total). Cells were starved in differentiation medium for 12-18 hr before use. For glycopeptide treatment, cells were incubated with fresh differentiation medium containing 10 μM glycopeptide for 1 hr at 37° C. To induce TrkA phosphorylation, cells were treated with NGF at a final concentration of 4 ng/ml for 5 minutes at 37° C. Cells were washed with ice cold PBS and lysed using RIPA lysis buffer containing protease and phosphatase inhibitors. The protein samples were separated on 4-12% SDS-PAGE gel and transferred to nitrocellulose membrane. Membranes were blocked for 1 h at room temperature and probed with anti-TrkA Ab (1:1500) and anti-pTrkA Ab (1:1500) overnight at 4° C., followed by 2 hr incubation with horseradish peroxidase-conjugated secondary antibodies. Enhanced chemiluminescence system was used for detection. The bands were quantified using the ImageJ program and the ratio of phosphor-TrkA to total TrkA was calculated and expressed as arbitrary units (a.u.).

NGF, sequence (P01138 122-241, species assumed): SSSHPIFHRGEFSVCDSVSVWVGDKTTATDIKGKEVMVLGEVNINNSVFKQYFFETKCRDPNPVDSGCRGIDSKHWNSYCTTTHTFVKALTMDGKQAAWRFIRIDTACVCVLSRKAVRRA
nerve growth factor (NGF), sequence (P01138 122-241, species assumed): as above

SMILES | binding to NGF (ELISA) ([1]; glycopeptide immobilized on streptavidin plate, NGF 0-60 nM, result in words) | ka2 (NGF) | kd1 (NGF) | kd2 (NGF) | ka1 (NGF) | effect on NGF-mediated neurite outgrowth (PC12 cells) | increase in NGF binding affinity in comparison to 1 (ELISA) ([1]; relative to glycopeptide 1) [fold] | binds to NGF more strongly than agent 1 (comparison of KD values) (NGF; KD of 5 versus KD of 1) | SPR overall response to NGF (NGF; compared with glycopeptide 1, result in words) | percentage of neurite-bearing cells (PC12 cells; 4 ng/ml NGF and 10 μM glycopeptide 3 days, 2 ng/ml NGF and 6 μM glycopeptide 5 days, result in words) | PC12 cell morphology with glycopeptide only (PC12 cells; in the absence of NGF) | increase of NGF-induced TrkA phosphorylation compared to control (TrkA) [%]
COC(=O)[C@@H]1C[C@@H](n2cc(CO[C@@H]3O[C@H](COS(=O)(=O)O)[C@H](OS(=O)(=O)O)[C@H](O[C@@H]4O[C@H](C(=O)O)[C@@H](O)[C@H](O)[C@H]4O)[C@H]3NC(C)=O)nn2)CN1C(=O)[C@@H]1C[C@@H](n2cc(CO[C@@H]3O[C@H](COS(=O)(=O)O)[C@H](OS(=O)(=O)O)[C@H](O[C@@H]4O[C@H](C(=O)O)[C@@H](O)[C@H](O)[C@H]4O)[C@H]3NC(C)=O)nn2)CN1C(=O)[C@@H]1C[C@@H](n2cc(CO[C@@H]3O[C@H](COS(=O)(=O)O)[C@H](OS(=O)(=O)O)[C@H](O[C@@H]4O[C@H](C(=O)O)[C@@H](O)[C@H](O)[C@H]4O)[C@H]3NC(C)=O)nn2)CN1C(=O)[C@@H]1C[C@@H](n2cc(CO[C@@H]3O[C@H](COS(=O)(=O)O)[C@H](OS(=O)(=O)O)[C@H](O[C@@H]4O[C@H](C(=O)O)[C@@H](O)[C@H](O)[C@H]4O)[C@H]3NC(C)=O)nn2)CN1C(=O)[C@@H]1C[C@@H](n2cc(CO[C@@H]3O[C@H](COS(=O)(=O)O)[C@H](OS(=O)(=O)O)[C@H](O[C@@H]4O[C@H](C(=O)O)[C@@H](O)[C@H](O)[C@H]4O)[C@H]3NC(C)=O)nn2)CN1C(=O)[C@@H]1C[C@@H](n2cc(CO[C@@H]3O[C@H](COS(=O)(=O)O)[C@H](OS(=O)(=O)O)[C@H](O[C@@H]4O[C@H](C(=O)O)[C@@H](O)[C@H](O)[C@H]4O)[C@H]3NC(C)=O)nn2)CN1C(=O)[C@@H]1C[C@@H](n2cc(CO[C@@H]3O[C@H](COS(=O)(=O)O)[C@H](OS(=O)(=O)O)[C@H](O[C@@H]4O[C@H](C(=O)O)[C@@H](O)[C@H](O)[C@H]4O)[C@H]3NC(C)=O)nn2)CN1C(=O)[C@@H]1C[C@@H](n2cc(CO[C@@H]3O[C@H](COS(=O)(=O)O)[C@H](OS(=O)(=O)O)[C@H](O[C@@H]4O[C@H](C(=O)O)[C@@H](O)[C@H](O)[C@H]4O)[C@H]3NC(C)=O)nn2)CN1C(=O)[C@@H]1C[C@@H](n2cc(CO[C@@H]3O[C@H](COS(=O)(=O)O)[C@H](OS(=O)(=O)O)[C@H](O[C@@H]4O[C@H](C(=O)O)[C@@H](O)[C@H](O)[C@H]4O)[C@H]3NC(C)=O)nn2)CN1C(=O)[C@@H]1C[C@@H](n2cc(CO[C@@H]3O[C@H](COS(=O)(=O)O)[C@H](OS(=O)(=O)O)[C@H](O[C@@H]4O[C@H](C(=O)O)[C@@H](O)[C@H](O)[C@H]4O)[C@H]3NC(C)=O)nn2)CN1C(=O)[C@@H]1C[C@@H](n2cc(CO[C@@H]3O[C@H](COS(=O)(=O)O)[C@H](OS(=O)(=O)O)[C@H](O[C@@H]4O[C@H](C(=O)O)[C@@H](O)[C@H](O)[C@H]4O)[C@H]3NC(C)=O)nn2)CN1C(=O)[C@@H]1C[C@@H](n2cc(CO[C@@H]3O[C@H](COS(=O)(=O)O)[C@H](OS(=O)(=O)O)[C@H](O[C@@H]4O[C@H](C(=O)O)[C@@H](O)[C@H](O)[C@H]4O)[C@H]3NC(C)=O)nn2)CN1C(=O)CCOCCOCCOCCOCCOCCOCCOCCOCCOCCOCCOCCOCCNC(=O)CCCC[C@@H]1SC[C@@H]2NC(=O)N[C@@H]21 [Glycopeptide 1] | moderate binding affinity | 3.62 (±0.04) × 10^−3 M^−1s^−1 | 3.22 (±0.07) × 10^−2 s^−1 | 6.43 (±0.13) × 10^−4 s^−1 | 1.95 (±0.39) × 10^3 M^−1s^−1 | no effect | – | – | – | – | – | –
COC(=O)[C@@H]1C[C@@H](n2cc(CO[C@@H]3O[C@H](COS(=O)(=O)O)[C@H](OS(=O)(=O)O)[C@H](O[C@@H]4O[C@H](C(=O)O)[C@@H](O)[C@H](O)[C@H]4O)[C@H]3NC(C)=O)nn2)CN1C(=O)[C@@H]1CCCN1C(=O)[C@@H]1CCCN1C(=O)[C@@H]1C[C@@H](n2cc(CO[C@@H]3O[C@H](COS(=O)(=O)O)[C@H](OS(=O)(=O)O)[C@H](O[C@@H]4O[C@H](C(=O)O)[C@@H](O)[C@H](O)[C@H]4O)[C@H]3NC(C)=O)nn2)CN1C(=O)[C@@H]1CCCN1C(=O)[C@@H]1CCCN1C(=O)[C@@H]1C[C@@H](n2cc(CO[C@@H]3O[C@H](COS(=O)(=O)O)[C@H](OS(=O)(=O)O)[C@H](O[C@@H]4O[C@H](C(=O)O)[C@@H](O)[C@H](O)[C@H]4O)[C@H]3NC(C)=O)nn2)CN1C(=O)[C@@H]1CCCN1C(=O)[C@@H]1CCCN1C(=O)[C@@H]1C[C@@H](n2cc(CO[C@@H]3O[C@H](COS(=O)(=O)O)[C@H](OS(=O)(=O)O)[C@H](O[C@@H]4O[C@H](C(=O)O)[C@@H](O)[C@H](O)[C@H]4O)[C@H]3NC(C)=O)nn2)CN1C(=O)[C@@H]1CCCN1C(=O)[C@@H]1CCCN1C(=O)[C@@H]1C[C@@H](n2cc(CO[C@@H]3O[C@H](COS(=O)(=O)O)[C@H](OS(=O)(=O)O)[C@H](O[C@@H]4O[C@H](C(=O)O)[C@@H](O)[C@H](O)[C@H]4O)[C@H]3NC(C)=O)nn2)CN1C(=O)[C@@H]1CCCN1C(=O)[C@@H]1CCCN1C(=O)[C@@H]1C[C@@H](n2cc(CO[C@@H]3O[C@H](COS(=O)(=O)O)[C@H](OS(=O)(=O)O)[C@H](O[C@@H]4O[C@H](C(=O)O)[C@@H](O)[C@H](O)[C@H]4O)[C@H]3NC(C)=O)nn2)CN1C(=O)[C@@H]1CCCN1C(=O)[C@@H]1CCCN1C(=O)[C@@H]1C[C@@H](n2cc(CO[C@@H]3O[C@H](COS(=O)(=O)O)[C@H](OS(=O)(=O)O)[C@H](O[C@@H]4O[C@H](C(=O)O)[C@@H](O)[C@H](O)[C@H]4O)[C@H]3NC(C)=O)nn2)CN1C(=O)[C@@H]1CCCN1C(=O)[C@@H]1CCCN1C(=O)[C@@H]1C[C@@H](n2cc(CO[C@@H]3O[C@H](COS(=O)(=O)O)[C@H](OS(=O)(=O)O)[C@H](O[C@@H]4O[C@H](C(=O)O)[C@@H](O)[C@H](O)[C@H]4O)[C@H]3NC(C)=O)nn2)CN1C(=O)[C@@H]1CCCN1C(=O)[C@@H]1CCCN1C(=O)[C@@H]1C[C@@H](n2cc(CO[C@@H]3O[C@H](COS(=O)(=O)O)[C@H](OS(=O)(=O)O)[C@H](O[C@@H]4O[C@H](C(=O)O)[C@@H](O)[C@H](O)[C@H]4O)[C@H]3NC(C)=O)nn2)CN1C(=O)[C@@H]1CCCN1C(=O)[C@@H]1CCCN1C(=O)[C@@H]1C[C@@H](n2cc(CO[C@@H]3O[C@H](COS(=O)(=O)O)[C@H](OS(=O)(=O)O)[C@H](O[C@@H]4O[C@H](C(=O)O)[C@@H](O)[C@H](O)[C@H]4O)[C@H]3NC(C)=O)nn2)CN1C(=O)[C@@H]1CCCN1C(=O)[C@@H]1CCCN1C(=O)[C@@H]1C[C@@H](n2cc(CO[C@@H]3O[C@H](COS(=O)(=O)O)[C@H](OS(=O)(=O)O)[C@H](O[C@@H]4O[C@H](C(=O)O)[C@@H](O)[C@H](O)[C@H]4O)[C@H]3NC(C)=O)nn2)CN1C(=O)[C@@H]1CCCN1C(=O)[C@@H]1CCCN1C(=O)[C@@H]1C[C@@H](n2cc(CO[C@@H]3O[C@H](COS(=O)(=O)O)[C@H](OS(=O)(=O)O)[C@H](O[C@@H]4O[C@H](C(=O)O)[C@@H](O)[C@H](O)[C@H]4O)[C@H]3NC(C)=O)nn2)CN1C(=O)[C@@H]1CCCN1C(=O)[C@@H]1CCCN1C(=O)CCOCCOCCOCCOCCOCCOCCOCCOCCOCCOCCOCCOCCNC(=O)CCCC[C@@H]1SC[C@@H]2NC(=O)N[C@@H]21 [Glycopeptide 5] | – | 1.97 (±0.02) × 10^−3 M^−1s^−1 | 2.74 (±0.04) × 10^−2 s^−1 | 6.00 (±0.17) × 10^−4 s^−1 | 4.65 (±0.16) × 10^4 M^−1s^−1 | significantly promoted neurite outgrowth | 4.6 | approximately 18 fold | higher overall responses | greatly increased | remained round-shaped and undifferentiated | ~40
